Among the data in PubChem BioAssay AID328 (DTP/NCI, 2004) are T/C values, retold here.

In this assay the test system is BDF1 mice, P388 leukemia ip, median survival T/C. As to the kind of experiment: NCI In Vivo Anticancer Drug Screen. Data for tumor model P388 Leukemia (intraperitoneal) in B6D2F1 (BDF1) mice. The settings on record: endpoint: median survival time, higher = longer survival. The method, boiled down:
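In tumour-bearing mice, survival after compound treatment is set against the vehicle group and given as a quotient.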

Where [1] appears, read: dose: 50.0 mg/kg/injection, schedule: Q01DX009 (ip), vehicle: saline with Tween-80.
Setting [2] is: dose: 100.0 mg/kg/injection, schedule: Q01DX009 (ip), vehicle: saline with Tween-80.
The mark [3] stands for this setting: dose: 200.0 mg/kg/injection, schedule: Q01DX009 (ip), vehicle: saline with Tween-80.
Setting [4] is: dose: 400.0 mg/kg/injection, schedule: Q01DX009 (ip), vehicle: saline with Tween-80.
Where [5] appears, read: dose: 100.0 mg/kg/injection, schedule: Q04DX003 (ip), vehicle: other.
[6] abbreviates: dose: 200.0 mg/kg/injection, schedule: Q04DX003 (ip), vehicle: other.
Where [7] appears, read: dose: 100.0 mg/kg/injection, schedule: Q04DX003 (ip), vehicle: Klucel (hydroxypropylcellulose) (HPC).
[8] abbreviates: dose: 200.0 mg/kg/injection, schedule: Q04DX003 (ip), vehicle: Klucel (hydroxypropylcellulose) (HPC).
Where [9] appears, read: dose: 12.5 mg/kg/injection, schedule: Q01DX009 (ip), vehicle: Klucel (hydroxypropylcellulose) (HPC).
The mark [10] stands for this setting: dose: 25.0 mg/kg/injection, schedule: Q01DX009 (ip), vehicle: Klucel (hydroxypropylcellulose) (HPC).
The mark [11] stands for this setting: dose: 50.0 mg/kg/injection, schedule: Q01DX009 (ip), vehicle: Klucel (hydroxypropylcellulose) (HPC).
Where [12] appears, read: dose: 25.0 mg/kg/injection, schedule: Q01DX009 (ip), vehicle: saline with Tween-80.
Where [13] appears, read: dose: 100.0 mg/kg/injection, schedule: Q01DX009 (ip), vehicle: Klucel (hydroxypropylcellulose) (HPC).

SMILES strings stand for the structures. Several values for one entry are separate records, joined by “and”; a condition that tells them apart may be missing. Identical values can stand only once. Toxic doses and inconclusive results are not listed.

Consider `Nc1nc(SCC(=O)c2ccccc2)c2[nH]cnc2n1`, for which the T/C (dose: 100.0 mg/kg/injection, schedule: Q01DX009 (ip), vehicle: saline sonified) is 115 % of control; the T/C (dose: 100.0 mg/kg/injection, schedule: Q04DX003 (ip), vehicle: saline with Tween-80) was 109 % of control; the T/C (dose: 200.0 mg/kg/injection, schedule: Q01DX009 (ip), vehicle: saline sonified) is 110 % of control; the T/C (dose: 200.0 mg/kg/injection, schedule: Q04DX003 (ip), vehicle: saline with Tween-80) is 113 % of control; the T/C (dose: 400.0 mg/kg/injection, schedule: Q01DX009 (ip), vehicle: saline sonified) is 110 % of control; the T/C (dose: 400.0 mg/kg/injection, schedule: Q04DX003 (ip), vehicle: saline with Tween-80) is 118 % of control.
Regarding `NC(c1ccccc1)S(=O)(=O)O` (centres undefined), the T/C was 115 % of control under setting [1], 121 % of control under setting [2], 93 % of control under setting [3] and 95 % of control under setting [4].
In the case of `CS(=O)(=O)N(CC(=O)O)Cc1ccc(Cl)c(Cl)c1`, the T/C is, setting by setting: (dose: 25.0 mg/kg/injection, schedule: Q04DX003 (ip), vehicle: other) 102 % of control; (dose: 50.0 mg/kg/injection, schedule: Q04DX003 (ip), vehicle: other) 102 % of control; under setting [5], 93 % of control; under setting [6], 106 % of control and 107 % of control; (dose: 300.0 mg/kg/injection, schedule: Q04DX003 (ip), vehicle: other) 95 % of control.
As to `CCCCOCN(COCCCC)c1ncccn1`, the T/C is 108 % of control under setting [1], 106 % of control under setting [2] and 104 % of control under setting [3].
`NC(=O)C(CO)NC(=O)OCc1ccccc1` (centres undefined): the T/C is, setting by setting: (dose: 25.0 mg/kg/injection, schedule: Q04DX003 (ip), vehicle: water) 110 % of control; (dose: 50.0 mg/kg/injection, schedule: Q04DX003 (ip), vehicle: water) 103 % of control; (dose: 100.0 mg/kg/injection, schedule: Q04DX003 (ip), vehicle: water) 100 % of control; (dose: 200.0 mg/kg/injection, schedule: Q04DX003 (ip), vehicle: water) 100 % of control; (dose: 400.0 mg/kg/injection, schedule: Q04DX003 (ip), vehicle: water) 103 % of control.
Turning to `COc1ccc(N2C(=O)CC(Sc3ccccc3N)C2=O)cc1` (centres undefined), the T/C was 100 % of control (dose: 50.0 mg/kg/injection, schedule: Q01DX001 (ip), vehicle: Klucel (hydroxypropylcellulose) (HPC)) and 104 % of control (dose: 100.0 mg/kg/injection, schedule: Q01DX001 (ip), vehicle: Klucel (hydroxypropylcellulose) (HPC)).
Regarding `C#CCOCC1CN(c2ccccc2)C(=O)O1` (centres undefined), the T/C under setting [7] was 95 % of control; the T/C under setting [8] is 100 % of control; the T/C (dose: 400.0 mg/kg/injection, schedule: Q04DX003 (ip), vehicle: Klucel (hydroxypropylcellulose) (HPC)) is 100 % of control.
For the compound `CCCCCCCCCCCCCC(=O)[O][Sn]([CH2]CCC)([CH2]CCC)[O]C(=O)CCCCCCCCCCCCC`, the T/C was 104 % of control (dose: 0.78 mg/kg/injection, schedule: Q04DX003 (ip), vehicle: other); 109 % of control (dose: 1.56 mg/kg/injection, schedule: Q04DX003 (ip), vehicle: other); 113 % of control (dose: 3.13 mg/kg/injection, schedule: Q04DX003 (ip), vehicle: other).
As for `CCOC(=O)C(OCc1ccccc1)(C(=O)Cl)C(C)C` (centres undefined), under setting [1], the T/C is 118 % of control.
`Cc1nnc(NS(=O)(=O)c2ccc(N=Nc3nc4[nH]c(N)nc(=S)c4[nH]3)cc2)s1`: the T/C runs as follows: (dose: 5.5 mg/kg/injection, schedule: Q01DX009 (ip), vehicle: saline) 114 % of control; (dose: 12.5 mg/kg/injection, schedule: Q04DX003 (ip), vehicle: Klucel (hydroxypropylcellulose) (HPC)) 95 % of control; (dose: 25.0 mg/kg/injection, schedule: Q04DX003 (ip), vehicle: Klucel (hydroxypropylcellulose) (HPC)) 104 % of control; (dose: 50.0 mg/kg/injection, schedule: Q04DX003 (ip), vehicle: Klucel (hydroxypropylcellulose) (HPC)) 100 % of control; (dose: 80.0 mg/kg/injection, schedule: Q01DX009 (ip), vehicle: Klucel (hydroxypropylcellulose) (HPC)) 155 % of control; (dose: 170.0 mg/kg/injection, schedule: Q01DX009 (ip), vehicle: saline) 172 % of control.
As for `O=C1CN(CN2CCCCC2)C(=O)CN1CN1CCCCC1`, the T/C is, setting by setting: under setting [9], 115 % of control; under setting [10], 117 % of control; under setting [11], 92 % of control and 100 % of control; under setting [7], 120 % of control; under setting [8], 108 % of control.
As to `N#CCCN(C(=S)Nc1ccc(Cl)c(Cl)c1)C1CCCCC1`, the T/C reads like this: under setting [1], 98 % of control and 117 % of control; under setting [2], 100 % of control and 119 % of control; under setting [3], 103 % of control and 119 % of control; under setting [4], 106 % of control.
As for `CSC(=S)N/N=C(\C)C1CCCC[N-]1.[Cl][Zn][Cl]` (centres undefined), the T/C by setting is: (dose: 12.5 mg/kg/injection, schedule: Q01DX009 (ip), vehicle: saline with Tween-80) 105 % of control; under setting [12], 119 % of control; under setting [1], 118 % of control.
Turning to `COC(=O)[C@]1(C)CCC[C@]2(C)[C@H]3CC4OO[C@@]3(CC[C@H]21)[C@H]1O[C@@]41C(C)C`, the T/C is 120 % of control (dose: 100.0 mg/kg/injection, schedule: Q01DX009 (ip), vehicle: other); 113 % of control under setting [5]; 100 % of control (dose: 132.0 mg/kg/injection, schedule: Q01DX009 (ip), vehicle: other); 87 % of control (dose: 200.0 mg/kg/injection, schedule: Q01DX009 (ip), vehicle: other); 118 % of control under setting [6]; 104 % of control (dose: 400.0 mg/kg/injection, schedule: Q04DX003 (ip), vehicle: other).
Take `Nc1ccc(OS(=O)(=O)c2ccccc2)cc1`: the T/C under setting [1] was 98 % of control, the T/C under setting [2] is 108 % of control, the T/C under setting [3] is 100 % of control and the T/C under setting [4] is 90 % of control.
In the same order, the values of `Oc1cc2c(cc1O)C1c3ccc(O)c(O)c3OCC1(O)C2` (centres undefined) are 97 % of control, 118 % of control, 102 % of control and 103 % of control.
For the compound `CC(C)(C)CC(C)(C)c1ccc(O)cc1O`, the T/C reads like this: under setting [12], 120 % of control; under setting [1], 95 % of control.
On to `C[C@@H]1CCC[C@@H](NC(=O)N(CCCl)N=O)C1`, for which the T/C (dose: 9.37 mg/kg/injection, schedule: Q01DX009 (ip), vehicle: Klucel (hydroxypropylcellulose) (HPC)) was 151 % of control; the T/C (dose: 18.75 mg/kg/injection, schedule: Q01DX009 (ip), vehicle: Klucel (hydroxypropylcellulose) (HPC)) is 157 % of control; the T/C (dose: 37.5 mg/kg/injection, schedule: Q01DX009 (ip), vehicle: Klucel (hydroxypropylcellulose) (HPC)) was 252 % of control; the T/C (dose: 75.0 mg/kg/injection, schedule: Q01DX009 (ip), vehicle: Klucel (hydroxypropylcellulose) (HPC)) is 120 % of control.
Regarding `C=CCNC(=S)N/N=C\c1cc(OC)c(OC)c(OC)c1`, the T/C runs as follows: under setting [1], 95 % of control; under setting [2], 100 % of control; under setting [3], 90 % of control.
On to `CC1NC(C(=O)O)Cc2cc(O)c(O)cc21` (centres undefined), for which the T/C is 109 % of control under setting [9]; 109 % of control under setting [10]; 92 % of control and 99 % of control under setting [11]; 101 % of control under setting [13].
Regarding `CC(=O)OC1CC2(O)C(CCC3(C)C(c4ccc(=O)oc4)CCC32O)C2(C)CCC(OC3OC(CO)C(O)C(O)C3O)C=C12` (centres undefined), the T/C (dose: 125.0 micrograms/kg/injection, schedule: Q01DX010 (ip), vehicle: saline) was 90 % of control.
`O=C(Cn1ccc(O)cc1=O)c1cccs1`: the T/C under setting [2] was 97 % of control, the T/C under setting [3] is 97 % of control and the T/C under setting [4] is 97 % of control.
Turning to `Cn1cnc([N+](=O)[O-])c1S(=O)(=O)NCN1CCOCC1`, the T/C is, setting by setting: under setting [9], 118 % of control; under setting [11], 121 % of control; under setting [13], 116 % of control.
